According to US20260191974A1, “B7-H3 TARGETING LIGANDS AND METHODS OF USE” (The University of North Carolina at Chapel Hill, priority 2022, published 2026):
Where “and” joins values, the source holds several entries; their conditions need not be identical. Equal values may be shown once. *1 amine or outer side, *2 acyl side, *3 side chain or, on linkers, in order; H or OH if unused. Where a SMILES comes first, the peptide text is derived from it. Bridges are numbered along the chain shown (N, C = ends). Where no end group is shown, it is not given here. [ ]: non-standard residue; d: D form. ξ: configuration not given here. mXylylene = c1cc(C[*:1])cc(C[*:2])c1; Nle = CCCC[C@H](N)C(=O)O; ξP = O=C(O)C1CCCN1

Key:
[1] = target: human and murine B7-H3; assay: KD (nM)
Experimental: (§1) Table printed on a drawing sheet, FIG. 24C
Head of the field: KD (nM)
(§2) The patent's description of the figure: FIGS. 24A-24C. SPR analysis of the selected peptides B1.1 and JP5. The B1.1 variant was analyzed at analyte concentrations of 7.5, 15, 30, 60, and 120 nM (FIG. 24A) and the JP5 variant was analyzed at analyte concentrations of 22.2, 66.6, 200, 600 and 1800 nM (FIG. 24B). (FIG. 24C) Binding kinetics of each peptide.
(§3) First copying reader's note: Bracket lines drawn over and under the sequences mark ring closures that the text cells cannot show: C-C above and Q-K below in oxidized B1.1, Q-K below only in reduced B1.1, and C-C above in JP5.
(§4) Where the first naming reader finds the target: passage: Surface plasmon resonance was used to evaluate binding of B1.1 and JP5 to both human and murine B7-H3 (FIGS. 24A-24C)

[2] = target: T1, biotinylated B7-H3 (Homo sapiens, UniProt Q5ZPR3); assay: Surface Plasmon Resonance (SPR) analysis against biotinylated B7-H3; details: biotinylated B7-H3, 25° C., 1:1 binding kinetics model
T1 sequence (Q5ZPR3 29-534): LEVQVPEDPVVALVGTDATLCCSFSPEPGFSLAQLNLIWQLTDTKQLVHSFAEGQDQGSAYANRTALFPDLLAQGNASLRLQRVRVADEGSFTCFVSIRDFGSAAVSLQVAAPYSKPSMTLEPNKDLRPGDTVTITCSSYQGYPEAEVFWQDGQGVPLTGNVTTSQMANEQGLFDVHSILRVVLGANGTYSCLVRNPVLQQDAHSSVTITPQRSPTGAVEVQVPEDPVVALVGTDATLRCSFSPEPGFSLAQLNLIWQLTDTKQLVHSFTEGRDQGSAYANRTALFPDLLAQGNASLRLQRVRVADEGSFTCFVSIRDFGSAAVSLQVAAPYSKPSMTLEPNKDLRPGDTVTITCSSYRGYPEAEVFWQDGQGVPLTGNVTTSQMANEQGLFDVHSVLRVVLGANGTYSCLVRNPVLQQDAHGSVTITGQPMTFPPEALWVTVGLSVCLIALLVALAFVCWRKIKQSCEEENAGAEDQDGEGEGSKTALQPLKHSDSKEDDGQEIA
From the text: (§5) FIGS. 4A-4G. (FIG. 4A) Selection schematic detailing the selection process for identifying binders against B7-H3. (FIG. 4B) qPCR results of the mTG mediated B7-H3 selection. (FIG. 4C) B7-H3 selection results and complete NGS analysis of B7-H3 hits. (FIG. 4D) NGS data of the selection hits. […] Arrow indicates the peptide pursued for binding validation. (FIG. 4E) EIC ([M+2], 948.91 m/z) traces corresponding to the product of the mTG reaction with linear B1.1 peptide and the synthetic lactam, disulfide peptide. (FIG. 4F) Surface Plasmon Resonance (SPR) analysis of the selected peptide (B1.1), the Met9Nle variant, and the linear variant. […] The selected B1.1 and the Met9Nle variant were analyzed at analyte concentrations of 7.5, 15, 30, 60, 120 nM. The linear variant was analyzed at analyte concentrations of 50, 100, 200, 400, 800 nM. […] (FIG. 4G) Individual SPR curves. Fitted curve and raw data are shown.
Surface Plasmon Resonance (SPR) analysis. Binding kinetics between our selected peptide (and variants) and biotinylated B7-H3 (B7-H3b) were assessed through SPR analysis using a BIACORE 8K SPR system (GE Healthcare). The running buffer was 1×PBS pH7.5, 0.05% TWEEN® 20 and all analysis was carried out at 25° C. B7-H3b was loaded onto a NeutrAvidin SPR Chip (Series S Sensor Chip NA, 29407997, Cytiva) at a flow rate of […] to a surface density of 1000-1500 response units. Analyte was then injected over a series of five concentrations and quantified by BIACORE single-cycle kinetics method. For our selected peptide (B1.1) and the Met9Nle variant a range of 7.5, 15, 30, 60, 120 nM were run. For the linear variant concentrations of 50, 100, 200, 400, 800 nM were run. Binding sonograms were generated using a standard 1:1 binding kinetics model and kinetics constants determined using standard BIACORE evaluation software.

[3] = tested on: Raji cells expressing murine B7-H3; assay: Live imaging with GFP-tagged endosome/lysosome reporters in Raji cells expressing murine B7-H3; format: cell-based; details: JP3-PEG-TAMRA or JP5-PEG-TAMRA at 250 nM for 5 hours
Experimental: FIGS. 22A-22B. Live imaging of an example targeting ligand uptake in Raji cells expressing murine B7-H3 pre-incubated with GFP-tagged reporters for early (Rab5a) and late (Rab7a) endosomes or early (Lamp1) lysosomes. Cells were treated with JP3-PEG-TAMRA (FIG. 22A) or JP5-PEG-TAMRA (FIG. 22B) at 250 nM for 5 hours, cytospun with live cell imaging subsequently performed.
Live imaging of an example targeting ligand uptake in Raji cells expressing murine B7-H3 pre-incubated with GFP-tagged reporters for early (Rab5a) and late (Rab7a) endosomes or early (Lamp1) lysosomes is shown in FIG. 22A (JP3) and FIG. 22B (JP5).

[4] = Serum stability in 50% fetal bovine serum; format: in vitro ADME; details: 37° C., read-out: peptide remaining intact
Experimental: Serum stability of JP3 and JP5 was assessed. Peptides (JP3 or JP5) were incubated in 50% fetal bovine serum (diluted in media) at 37° C. and samples were taken over a time course spanning 24 h. Samples were mixed with cold methanol to crash out serum protein, and the supernatant containing the peptides was collected and run on MS to determine the amount of peptide present at each time point.

[5] = target: T2, B7-H3 (Homo sapiens, UniProt Q5ZPR3); assay: mRNA display validation assay of NGS hits against B7-H3; format: binding; details: naïve NNK10 library as a control
T2 sequence (Q5ZPR3 29-534): T1 sequence (Q5ZPR3 29-534)
From the text: FIGS. 11A-11F. Dibromoxylene (DBX) mediated B7-H3 selection. (FIG. 11A) Selection schematic details the selection process for identifying binders against B7-H3 using DBX. (FIG. 11B) qPCR results of the DBX mediated B7-H3 selection. (FIG. 11C) Mean frequency vs. number of sequences. (FIG. 11D) NGS data of the selection hits from Selections (rounds 3 and 5), named sequences indicate sequences purchased for binding validation. (FIG. 11E) Validation assay identified hits from NGS data run through the selection process (outlined in (FIG. 11A)), with the naïve NNK10 library as a control.
A background screen against selection components is carried out prior to the selection against B7-H3 to remove non-specific binders. FIG. 11D includes sequences from NGS data with named sequences evaluated for binding validation. […] Exemplary DBX hit structures are shown in FIG. 12, with points of cargo attachment designated with arrows.

[6] = tested on: human and murine B7-H3; assay: Ka (M^-1s^-1)
Experimental: as §1
Head of the field: Ka (M^-1s^-1)
as §2, §3, §4

[7] = tested on: B7-H3; assay: ka (M^-1s^-1)
From the text: (§6) Table printed on a drawing sheet, FIG. 4F
Head of the field: ka (M^-1s^-1)
as §5, with “The patent's description of the figure: FIGS.” for “FIGS.”
(§7) First copying reader's note: Brackets drawn on the SELECTED and MET9NLE sequences join C to C (above) and Q to K (below), marking a bicyclic peptide; LINEAR has no brackets.
(§8) Where the first naming reader finds the target: passage: Binding affinities were assessed for each peptide by surface plasmon resonance (SPR) against biotinylated B7-H3.

[8] = tested on: B7-H3; assay: kd (s^-1)
From the text: as §6
Head of the field: kd (s^-1)
as §5, with “The patent's description of the figure: FIGS.” for “FIGS.”
as §7, §8

Compound	binding affinity towards B7-H3 [2]	subcellular localization (Rab5a, Rab7a, Lamp1 reporters) [3]	remaining at 24 h [4]	binding in validation assay [5]	Ka (M^-1s^-1) [6]	other results
acWALQLCHSNleFYTCKSGK(AZO)G [OXIDIZED B1.1 | 296]						Kd [1]: 161 nM
linear variant of B1.1: linear form of B1.1 without lactam and disulfide cyclization (WALQLCHSMFYTCKSG-NH2; cysteine pairing not given here)	no detectable binding interaction					binding affinity towards B7-H3 ([2]; listed as linear precursor peptide): did not bind
CC[C@H](C)[C@@H]1NC(=O)[C@@H](NC(C)=O)CSCc2cccc(c2)CSC[C@@H](C(=O)NCC(=O)O)NC(=O)[C@@H]2CCCN2C(=O)[C@H](CC(C)C)NC(=O)[C@H](Cc2ccccc2)NC(=O)[C@H](CCCNC(=N)N)NC(=O)C2CCCN2C(=O)[C@H]([C@@H](C)CC)NC(=O)[C@H](CCCNC(=N)N)NC(=O)[C@H]([C@@H](C)O)NC(=O)[C@H](Cc2c[nH]c3ccccc23)NC(=O)[C@H](C(C)C)NC1=O (stereo partly drawn) [JP3, N-terminal acetylated CIVWTRIPRFLPCG] (Ac-CIVWTRI[ξP]RFLPCG-OH; linker 1-13 via mXylylene)		Co-localization of JP3 and Rab5a	~40%	strong B7-H3 binders		
CC[C@H](C)[C@@H]1NC(=O)[C@H](CC(=O)O)NC(=O)[C@H](CCCNC(=N)N)NC(=O)[C@H]([C@@H](C)CC)NC(=O)[C@H]([C@@H](C)O)NC(=O)[C@H](Cc2c[nH]c3ccccc23)NC(=O)[C@@H](NC(C)=O)CSCc2cccc(c2)CSC[C@@H](C(=O)NCC(=O)O)NC(=O)[C@H](CCCNC(=N)N)NC(=O)[C@H]([C@@H](C)O)NC(=O)CNC(=O)[C@H](CC(N)=O)NC1=O [JP5, N-terminal acetylated CWTIRDINGTRCG] (Ac-CWTIRDINGTRCG-OH; linker 1-12 via mXylylene; N-terminus and C-terminus assumed)		predominantly cell surface localization of JP5 was observed with some rare evidence of endosomal uptake	80%	strong B7-H3 binders	1.25e^5 and 1.02e^5	
CCCC[C@@H]1NC(=O)[C@H](CO)NC(=O)[C@H](Cc2c[nH]cn2)NC(=O)[C@@H]2CSSC[C@H](NC(=O)[C@H]([C@@H](C)O)NC(=O)[C@H](Cc3ccc(O)cc3)NC(=O)[C@H](Cc3ccccc3)NC1=O)C(=O)N[C@H](C(=O)N[C@@H](CO)C(=O)NCC(N)=O)CCCCNC(=O)CC[C@H](NC(=O)[C@H](CC(C)C)NC(=O)[C@H](C)NC(=O)[C@H](Cc1c[nH]c3ccccc13)NC(C)=O)C(=O)N[C@@H](CC(C)C)C(=O)N2 [Met9Nle variant, acWALQLCHSNleFYTCKSG] (Ac-WALELCHS[Nle]FYTCKSG-NH2; lactam 4-14; disulfide 6-13)	similar					Kd ([2]; read-out: binding affinity towards B7-H3): 46.9 nM; ka (M^-1s^-1) [7]: 9.55e^5; kd (s^-1) [8]: 4.48e^-2
acWALQLCHSNleFYTCKSGK(AZO)G [REDUCED B1.1 | 294]					7.444e^7	
